Source: ChEMBL document CHEMBL1131495, “2,4-Diamino-6,7-dihydro-5H-cyclopenta[d]pyrimidine analogues of trimethoprim as inhibitors of Pneumocystis carinii and Toxoplasma gondii dihydrofolate reductase” (J Med Chem, 1998)
pIC50: −log10 of the molar value.

Assays:
[1] = molecular target: T1, Bifunctional dihydrofolate reductase-thymidylate synthase (Toxoplasma gondii, UniProt Q07422); assay: Compound was tested for inhibition activity against Toxoplasma gondii (Toxoplasma gondii) Dihydrofolate reductase
T1 sequence (Q07422 whole entry): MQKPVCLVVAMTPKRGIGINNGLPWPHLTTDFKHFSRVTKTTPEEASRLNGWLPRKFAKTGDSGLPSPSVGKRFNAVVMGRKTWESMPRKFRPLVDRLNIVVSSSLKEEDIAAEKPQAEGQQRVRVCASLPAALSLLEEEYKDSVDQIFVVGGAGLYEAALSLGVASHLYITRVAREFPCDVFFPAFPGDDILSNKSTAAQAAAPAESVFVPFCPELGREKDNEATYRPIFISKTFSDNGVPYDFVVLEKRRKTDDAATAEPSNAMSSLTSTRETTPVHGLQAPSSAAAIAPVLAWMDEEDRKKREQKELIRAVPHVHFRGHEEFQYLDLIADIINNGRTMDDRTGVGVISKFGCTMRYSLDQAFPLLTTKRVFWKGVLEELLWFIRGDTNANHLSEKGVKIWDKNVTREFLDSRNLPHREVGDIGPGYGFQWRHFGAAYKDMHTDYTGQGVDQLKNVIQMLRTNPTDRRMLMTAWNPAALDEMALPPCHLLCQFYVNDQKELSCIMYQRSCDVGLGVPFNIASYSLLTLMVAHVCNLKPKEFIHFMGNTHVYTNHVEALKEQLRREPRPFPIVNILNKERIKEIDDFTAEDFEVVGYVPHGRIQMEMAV

[2] = Selectivity ratio is the ratio between the IC50 values of rat liver and Toxoplasma gondii
Dihydrofolate reductase [3] = molecular target: T2, Dihydrofolate reductase (Pneumocystis carinii, UniProt P16184)
T2 sequence (P16184 whole entry): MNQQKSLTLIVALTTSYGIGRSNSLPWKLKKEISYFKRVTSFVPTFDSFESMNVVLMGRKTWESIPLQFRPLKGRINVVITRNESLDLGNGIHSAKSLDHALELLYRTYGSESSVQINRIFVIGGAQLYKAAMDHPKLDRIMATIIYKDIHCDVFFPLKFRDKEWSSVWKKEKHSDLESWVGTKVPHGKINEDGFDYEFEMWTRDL
Description: Compound was tested for inhibition activity against pneumocystis carinii (Pneumocystis carinii) Dihydrofolate reductase

Dihydrofolate reductase [4] = molecular target: T3, Dihydrofolate reductase (Rattus norvegicus, UniProt Q920D2)
T3 sequence (Q920D2 whole entry): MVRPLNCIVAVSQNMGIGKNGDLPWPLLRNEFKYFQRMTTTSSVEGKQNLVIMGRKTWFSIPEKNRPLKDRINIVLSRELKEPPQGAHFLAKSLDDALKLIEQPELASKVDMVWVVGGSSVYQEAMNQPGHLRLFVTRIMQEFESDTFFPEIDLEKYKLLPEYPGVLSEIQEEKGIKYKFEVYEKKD
Description: Compound was tested for inhibition activity against rat liver lipophilic Dihydrofolate reductase (DHFR).

[5] = Selectivity ratio is the ratio between the IC50 values of rat liver and Pneumocystis carinii

Row | Structure (SMILES) | pIC50 [1] | Selectivity ratio [2] | pIC50 (Dihydrofolate reductase [3]) | pIC50 (Dihydrofolate reductase [4]) | Selectivity ratio [5]
1 | COc1cc(CC2CCc3nc(N)nc(N)c32)cc(OC)c1OC (stereo not given) | 4.68 | 3.29 | < 4.49 | 4.16 | –
2 | COc1ccc(OC)c(Cc2cnc3nc(N)nc(N)c3c2C)c1 [PIRITREXIM] | – | – | – | 7.82 | –
3 | COc1cc(CCCC2CCc3nc(N)nc(N)c32)cc(OC)c1OC (stereo not given) | 6.85 | 1.57 | 5.89 | 6.66 | 0.17
4 | COc1cc(CCC2CCc3nc(N)nc(N)c32)cc(OC)c1OC (stereo not given) | 6.85 | 3.64 | 5.74 | 6.29 | 0.28
